Earlier results, collected in patent US20140148379A1, “Control of Unwanted Bacteria in Fermentation Systems with Bacteriocin” (priority 2012, published 2014).

Tested on: Staphylococcus aureus
Settings: nisin combined with the endolysin produced by Staphylococcal phage; contaminated milk

Question: Which effect of combination does the source give for nisin here?
Answer: The effect of combination was “strong synergistic effect”.
